Results as given in patent publication US20260364181A1, “AKR1C3 Targeted Heterobifunctional Small Molecule Proteolysis Targeting Chimeras” (BOARD OF REGENTS OF THE UNIVERSITY OF NEBRASKA, priority 2022, published 2026).

Columns and labels:
[1] = biological target: T1, AKR1C2 (Homo sapiens, UniProt P52895); experiment: AKR1C2 enzyme inhibition (oxidation of S-tetralol); format: biochemical; conditions: role: substrate; 3.0 mM S-tetralol, 2.3 mM NAD+, 100 mM potassium phosphate pH 7.0, 37 °C
T1 construct: made in house
T1 sequence (P52895 1-323): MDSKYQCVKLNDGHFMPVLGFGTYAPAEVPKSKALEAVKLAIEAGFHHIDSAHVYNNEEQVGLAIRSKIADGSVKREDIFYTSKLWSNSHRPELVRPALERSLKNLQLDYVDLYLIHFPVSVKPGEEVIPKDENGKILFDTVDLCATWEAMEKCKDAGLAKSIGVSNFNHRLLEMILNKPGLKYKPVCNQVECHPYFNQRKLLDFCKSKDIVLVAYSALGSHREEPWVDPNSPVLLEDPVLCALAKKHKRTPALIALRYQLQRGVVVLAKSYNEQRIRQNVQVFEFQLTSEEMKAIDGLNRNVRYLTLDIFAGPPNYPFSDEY
Protocol: (§1) Enzyme Inhibition Assay. (S)-(+)-1,2,3,4-tetrahydro-1-naphthol (S-tetralol) was purchased from Sigma-Aldrich (St. Louis, MO). Nicotinamide adenine dinucleotide (NAD^+) and nicotinamide adenine dinucleotide phosphate (NADP^+) were purchased from Roche Diagnostics (Indianapolis, IN). Homogeneous recombinant enzymes AKR1C1, AKR1C2, AKR1C3 and AKR1C4 were prepared and purified as previously described.^3 The specific activities of AKR1C3 and AKR1C2 for the oxidation of S-tetralol are 2.0 and 1.5 μmol/(min mg), respectively.
(§2) Assay of Enzyme Activity. The dehydrogenase activities of AKR1C3 and AKR1C2 were determined by measuring the UV absorption of NADH formation at 340 nm using a Beckman DU-640 spectrophotometer. […] After continuously monitoring for 5 min, we recorded the increase in UV absorption using different concentrations of an enzyme to calculate the initial velocity and determine the specific activity of the enzyme.
(§3) IC50 Value Determination. The inhibitory potency for each compound was represented by IC50 values and measured as described before. The IC50 values of [COMPOUND LEFT OUT] and [COMPOUND LEFT OUT] analogues were determined by measuring their inhibition of the NADP+-dependent oxidation of S-tetralol catalyzed by AKR1C3 or AKR1C2. […]

[2] = biological target: T2, AKR1C3 (Homo sapiens, UniProt P42330); experiment: AKR1C3 enzyme inhibition (oxidation of S-tetralol); format: biochemical; conditions: role: substrate
T2 sequence (P42330 1-323): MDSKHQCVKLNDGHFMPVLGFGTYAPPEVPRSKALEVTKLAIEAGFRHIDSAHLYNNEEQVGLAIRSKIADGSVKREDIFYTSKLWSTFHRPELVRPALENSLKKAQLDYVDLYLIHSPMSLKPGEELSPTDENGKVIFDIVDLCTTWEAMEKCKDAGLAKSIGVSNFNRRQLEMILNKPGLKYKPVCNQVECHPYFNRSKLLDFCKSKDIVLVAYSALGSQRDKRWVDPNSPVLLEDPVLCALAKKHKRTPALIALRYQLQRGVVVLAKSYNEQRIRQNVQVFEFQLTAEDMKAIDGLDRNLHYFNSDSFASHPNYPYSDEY
Protocol: as §1, §2, §3

[3] = biological target: T2, AKR1C3; experiment: AKR1C3 protein degradation in 22Rv1 prostate cancer cells (Western blot); format: cell-based; parameters: 22Rv1 prostate cancer cells that express high levels of AKR1C3; host or cells: 22Rv1; conditions: 1 μM and 10 μM; 24 h; in words
Protocol: Protein Expression via Western Blot. 22Rv1 cells were seeded in a 6-well plate and incubated overnight. Next day, the cells were treated with varying concentrations of 6 (1 and 10 μM) and 5 (0.5, 1, 10, 50, 100, 250, and 500 nM; 1, 10, and 50 μM) for 24 hours and 5 (1 and 10 nM) at different time points (0, 2, 4, 6, 12, 16, 24, 48, and 72 h). Whole cell lysates were extracted in RIPA lysis buffer containing protease inhibitor and EDTA (Fisher Scientific, PI78440). Protein concentrations in each sample was estimated following BCA assay (Pierce™ BCA protein assay kit, Fisher Scientific, PI23227) as per the manufacturer's protocol. Proteins were standardized using RIPA lysis buffer with Laemelli SDS sample buffer (Thermo Scientific, AAJ61337AC) and heated at 1000C for 15 minutes. The proteins were resolved on a 4-12% premade gel (Invitrogen, NW04120BOX) at 60-90 V in 20× Bolt™ MES SDS running buffer (Fisher Scientific, B000202) and transferred onto a nitrocellulose membrane (Invitrogen, IB23001) using iBlot 2. The membranes were blocked with 2.5% non-fat dry milk (Bio-Rad, 1706404) for 1 h, and the membrane was incubated overnight on a rocking platform at 4 °C with the desired primary antibodies against AKR1C3 (mouse mAb, 1:200, Sigma, A6229), AKR1C1/C2 (rabbit mAb, 1:500, Abcam, ab179448), ARv7 (rabbit mAb, 1:500, Abcam, ab198394) and actin (mouse mAb, 1:1,000, ThermoFisher, MA5-11869). The membranes were washed three times, 10 minutes each, with 1×Tris-buffered saline (TBST, Bio-Rad, 1706435) in 0.1% Tween 20, on a rocking platform wherein they were incubated with rabbit anti-mouse IgG (ThermoFisher, 31450) or goat anti-rabbit IgG (Jackson ImmunoResearch, 111-035-003) secondary antibody (1:1,000) horseradish peroxidase conjugate for 1 hour. The membranes were again washed three times with 1×TBST, upon which they were exposed to LI-COR WesternSure PREMIUM chemiluminescent substrate (Fisher Scientific, 50-489-552) and developed in a dark room with Konica Minolta equipment. Bands were quantified by densitometry using ImageJ software and fold change in AKR1C3, AKR1C1/C2, and ARv7 protein expression was determined based on actin controls. […]
The AKR1C3 degradation effect of PROTAC 5 was screened across a range of concentrations to identify a suitable treatment protocol. 22Rv1 cells were treated with increasing concentrations of […], DMSO or lenalidomide 6 at 1 μM and 10 μM for 24 hours, and the degradation profile was determined by Western blot analysis with antibody for AKR1C3.

[4] = test system: 22Rv1 prostate cancer cells; experiment: 22Rv1 cell viability (MTS assay); format: cell-based; conditions: 72 h
Protocol: Cell culture and reagents. 22Rv1 cells were purchased from the American Type Culture Collection (ATCC in 2016) and cultured in RPMI 1640 supplemented with 10% Fetal Bovine Serum (FBS, Fisher Scientific, MT35011CV) and Penicillin-Streptomycin Solution (1%, Fisher Scientific, MT30001Cl) at 37 °C in a humidified incubator with 5% carbon dioxide atmosphere. Stock solutions of E3 ligase ligand, lenalidomide 6 (10 mM), PROTAC 5 (25 mM), and AKR1C3 inhibitor 3 (100 mM) were prepared in DMSO.
Cell viability assay. Cells were seeded at a density of 10,000 cells/well in a 96-well plate containing 100 μL growth media per well and were incubated at 37 °C in a humidified incubator with 5% carbon dioxide over ~18-24 hours. Cells were treated with 6, 5, and 3 serially diluted at the indicated concentrations limiting the final DMSO concentration to less than 0.1% and incubated at 37 °C for 72 hours. 10 μL of MTS reagent (CellTiter96®Aqueous One Solution Reagent, Promega, G3580) was added to each well and incubated at the above-mentioned conditions for 4 hours. Absorbance was recorded at OD 490 nm on a Synergy LX multi-mode reader and the viability of cells were plotted as percentage of DMSO control.

[5] = substrate: O[C@H]1CCCc2ccccc21; experiment: AKR1C2 enzyme inhibition (oxidation of S-tetralol); format: biochemical; conditions: other: role: substrate; NADP+-dependent oxidation; pH 7.0; 37.0 °C
Protocol: as §1, §2, §3

## O[C@H]1CCCc2ccccc21 [S-tetralol, (S)-(+)-1,2,3,4-tetrahydro-1-naphthol]
[1]
  specific activity of AKR1C2 for oxidation of S-tetralol: 1.5 µmol/min/mg
[2]; 3.0 mM S-tetralol, 2.3 mM NAD+, 100 mM potassium phosphate pH 7.0, 37 °C
  specific activity of AKR1C3 for oxidation of S-tetralol: 2.0 µmol/min/mg
[2]; NADP+-dependent oxidation
  Km: 165 µM

## Nc1cccc2c1CN(C1CCC(=O)NC1=O)C2=O (stereo not shown) [lenalidomide 6, lenalidomide, reference compound]
[3]
  effect on AKR1C3 expression: no effect on AKR1C3 expression
[4]
  22Rv1 cell viability activity in words: no activity
[4]; Homo sapiens, 22Rv1, MTS, mean±standard deviation of two independent experiments
  IC50: > 100 µM

B1: AKR1C2 (Homo sapiens) (protein)
chain: MDSKYQCVKLNDGHFMPVLGFGTYAPAEVPKSKALEAVKLAIEAGFHHIDSAHVYNNEEQVGLAIRSKIADGSVKREDIFYTSKLWSNSHRPELVRPALERSLKNLQLDYVDLYLIHFPVSVKPGEEVIPKDENGKILFDTVDLCATWEAMEKCKDAGLAKSIGVSNFNHRLLEMILNKPGLKYKPVCNQVECHPYFNQRKLLDFCKSKDIVLVAYSALGSHREEPWVDPNSPVLLEDPVLCALAKKHKRTPALIALRYQLQRGVVVLAKSYNEQRIRQNVQVFEFQLTSEEMKAIDGLNRNVRYLTLDIFAGPPNYPFSDEY
notes: made in house
[5]
  Km: 15 µM
